PubChem BioAssay AID240 (DTP/NCI, 2004)
“And” between values parts separate entries of the source, which are not always exact repeats. Equal entries are not always repeated. Inconclusive results and toxic doses are left out. The calls were made as follows: active = survival T/C of 150% or more; inactive = T/C below 125% in these data.

Test system: Lymphoma 4 ip in BDF1 mice, median survival
Experiment: NCI In Vivo Anticancer Drug Screen. Data for tumor model Lymphoma 4 (intraperitoneal) in B6D2F1 (BDF1) mice
Settings: endpoint: median survival time, schedule: Q01DX010 (ip), vehicle: saline, higher = longer survival
Procedure: The antitumor activity of compounds was measured in mice bearing transplantable tumors. Survival or tumor size were measured and the results are expressed as the measurement made in the treated group (T) divided by the measurement made in the vehicle treated control group (C). The tumor model used in this assay is Lymphoma 4 (intraperitoneal) in B6D2F1 (BDF1) mice

Measured: T/C

C[C@H]1C(=O)O[C@@H]2CCN3CC=C(COC(=O)[C@](C)(O)[C@@]1(C)O)[C@H]23
inactive: dose: 3.13 mg/kg/injection 94 % of control and 100 % of control | dose: 6.25 mg/kg/injection 93 % of control and 94 % of control | dose: 12.5 mg/kg/injection 94 % of control and 103 % of control | dose: 25.0 mg/kg/injection 91 % of control and 103 % of control
